Values after ≈ are worked out from the molar mass of the structure shown.
Columns and labels:
[1] = system: murine lymphocytes (sheep red blood cells as antigen); experiment: Antigen-specific adjuvanticity: direct anti-SRBC plaque forming cells, murine system; assay type: cell-based, mouse; details: for Direct anti-SRBC PFC/Culture at supraoptimal concentration: 3 × 10^-4 M
How it was run: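 Murine spleen cells (5×10^6 to 10^7) cultured 4 or 5 days in 1.0 ml 5% FCS RPMI 1640, 37 °C, 10% CO2, with or without SRBC immunogen. Anti-SRBC direct plaque-forming cells counted per culture by modified Jerne–Nordin hemolytic plaque assay with guinea pig complement; mean ± standard error at peak concentration.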

[2] = system: CBA/CaJ thymocytes (irradiated BDF1 splenocyte stimulators); experiment: T cell proliferation in mixed leukocyte cultures, CBA/CaJ thymocytes; assay type: cell-based, mouse; details: Study 3, responder +, stimulator +
Excerpt: A third and fourth study utilized thymocytes from CBA/CaJ mice as the stimulated (responder) cells, and irradiated BDFl mouse spleen cells as the stimulator cells. Two guanosine derivatives of the present invention, 7a8MGuo and 7a8oGuo, were used for these studies, with 8MGuo serving as positive control for one of the studies.
However, in the presence of interleukin-2 (IL-2), those cells develop responsiveness to allogeneic stimulation. The present studies utilizing thymocytes were therefore carried out in the presence of a co-stimulating amount of IL-2.
^1 Plus signs (+) are utilized to indicate the presence of the
^3 Allogeneic cells used to costimulate proliferation, after exposure
T Helper Cell Activation. 1.5×10^5 viable spleen cells from SJL mice or CBA/CaJ mouse thymocytes were cultured with or without an equal number of irradiated (2500 rads) spleen cells from CBA/CaJ or BDFl mice respectively, in 0.2 ml of culture medium in the presence of incremental concentrations of the exemplary 7,8-disubstituted guanine derivatives. The lymphocyte culture medium utilized was that described before, and was further supplemented with 2-mercaptoethanol to a final concentration of 50 uM. Thymocyte cultures also contained 10 percent (v/v) of a concanavalin A-conditioned rat spleen cell medium sold under the name Rat T Cell Monoclone by Collaborative Research. Following 90 hours of culture, one microCurie [^3 H]TdR per culture was admixed, and the resulting culture was maintained for a further six hour time period.
The cultures were harvested with a Brandel cell harvester (M24V, Biological Research and Development Laboratories, Rockville, Md.) onto glass fiber filter disks. Filter disks were transferred to plastic scintillation vials, covered with liquid scintillation cocktail, and counted in a Beckman LS5700 liquid scintillation counter.

physchem = assay type: physicochemical, human
Excerpt: Solubilities in urine could be expected to be lower than those for water due to the relatively higher salt content in urine than is found in water.
Each sample was filtered through a 5 micron pore-sized filter, diluted as necessary with the HPLC mobile phase, and then quantified by HPLC.

**Q.** Which results are given for `C=CCn1c(=S)n([C@@H]2O[C@H](CO)[C@@H](O)[C@H]2O)c2nc(N)[nH]c(=O)c21` [7a8MGuo, 7-(2-Propenyl)-8-thioxoguanosine]?
**A.** Direct anti-SRBC PFC/Culture at supraoptimal concentration ([1]; Table 5, supraoptimal concentration (*)): 925 ± 80 PFC/Culture; Peak Direct anti-SRBC PFC/Culture ([1]; Table 5, murine system, at peak concentration): 1850 ± 70 PFC/Culture; Peak Direct anti-SRBC PFC/Culture ([1]; Table 6, murine system, at peak concentration): 1867 ± 150 PFC/Culture; Peak Direct anti-SRBC PFC/Culture ([1]; Table 6, study a): 1850 ± 50 PFC/Culture; Direct anti-SRBC PFC/Culture at supraoptimal concentration ([1]; Table 6, study b, supraoptimal amount (*)): 925 ± 80 PFC/Culture; Peak Direct anti-SRBC PFC/Culture ([1]; Table 6, study c): 1975 ± 109 PFC/Culture; Direct Anti-SRBC PFC/Culture ([1]; Table 8, 1 × 10^-5 M): 1049 PFC/Culture; Average 1 Log Plaque Values ([1]; Table 9, murine, * = single study): 326,840 ± 170,907 per micromole; adjuvanticity higher / more active than comparison compound of U.S. Pat. No. 4,643,992 ([1]; murine system (Table 5), vs 7m8oGuo or compounds of that patent): more than 100%; [3H] TdR Uptake ([2]; 10^-4 M): 21,400 ± 1200 counts per minute; [3H] TdR Uptake ([2]; 10^-5 M): 15,300 ± 600 counts per minute; [3H] TdR Uptake ([2]; 10^-6 M): 11,800 ± 400 counts per minute; solubility in human urine, in words (physchem): relatively insoluble; solubility at 18 h (physchem; human, urine): 300 µg/mL (≈ 844 µM)

From patent US5011828A, “Immunostimulating guanine derivatives, compositions and methods” (priority 1988, dated 1991)
